Measured values from PubChem BioAssay (NCI).
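Following 48 hours of exposure in 96-well plates, responses at five concentrations were used to interpolate endpoints linearly. Here, GI50 denotes the concentration required for 50% inhibition of growth. TGI: concentration producing complete growth inhibition.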

Key:
Assay in all cases: NCI anticancer screen, dose series, 48 h
KM12 colon = test system: KM12 colon
MOLT-4 leukemia = test system: MOLT-4 leukemia
LOX IMVI melanoma = test system: LOX IMVI melanoma
HCC-2998 colon = test system: HCC-2998 colon
OVCAR-5 ovarian = test system: OVCAR-5 ovarian
NCI-H460 lung = test system: NCI-H460 lung
HOP-62 NSCLC = test system: HOP-62 NSCLC
RPMI-8226 leukemia = test system: RPMI-8226 leukemia
UACC-62 melanoma = test system: UACC-62 melanoma
A498 renal = test system: A498 renal
SF-539 CNS = test system: SF-539 CNS
SR leukemia = test system: SR leukemia
OVCAR-8 ovarian = test system: OVCAR-8 ovarian
SK-OV-3 ovarian = test system: SK-OV-3 ovarian
K-562 leukemia = test system: K-562 leukemia
HL-60(TB) leukemia = test system: HL-60(TB) leukemia
OVCAR-4 ovarian = test system: OVCAR-4 ovarian
MCF7 breast = test system: MCF7 breast
MALME-3M melanoma = test system: MALME-3M melanoma
PC-3 prostate = test system: PC-3 prostate
786-0 renal = test system: 786-0 renal
T-47D breast = test system: T-47D breast
SW-620 colon = test system: SW-620 colon
RXF 393 renal = test system: RXF 393 renal
SNB-75 CNS = test system: SNB-75 CNS
NCI-H226 lung = test system: NCI-H226 lung
SK-MEL-5 melanoma = test system: SK-MEL-5 melanoma
HT29 colon = test system: HT29 colon
NCI/ADR-RES ovarian = test system: NCI/ADR-RES ovarian
HS 578T breast = test system: HS 578T breast
CAKI-1 renal = test system: CAKI-1 renal
SNB-19 CNS = test system: SNB-19 CNS
CCRF-CEM leukemia = test system: CCRF-CEM leukemia
HOP-92 NSCLC = test system: HOP-92 NSCLC
UO-31 renal = test system: UO-31 renal
MDA-MB-435 = test system: MDA-MB-435
BT-549 breast = test system: BT-549 breast
U251 CNS = test system: U251 CNS
A549 NSCLC = test system: A549 NSCLC
HCT-15 colon = test system: HCT-15 colon
ACHN renal = test system: ACHN renal
NCI-H23 lung = test system: NCI-H23 lung
IGROV1 ovarian = test system: IGROV1 ovarian
SF-268 CNS = test system: SF-268 CNS
SF-295 CNS = test system: SF-295 CNS
SK-MEL-28 melanoma = test system: SK-MEL-28 melanoma
OVCAR-3 ovarian = test system: OVCAR-3 ovarian
EKVX NSCLC = test system: EKVX NSCLC
SK-MEL-2 melanoma = test system: SK-MEL-2 melanoma
UACC-257 melanoma = test system: UACC-257 melanoma
TK-10 renal = test system: TK-10 renal
HCT-116 colon = test system: HCT-116 colon
COLO 205 colon = test system: COLO 205 colon
M14 melanoma = test system: M14 melanoma
MDA-MB-231 breast = test system: MDA-MB-231 breast
NCI-H522 lung = test system: NCI-H522 lung
SN12C renal = test system: SN12C renal
DU-145 prostate = test system: DU-145 prostate

Q: For COc1ccc(/C=C(\C#N)c2cc3ccccc3n2C)cc1, which GI50 (KM12 colon) is on record?
A: 503 nM

Q: And the TGI (KM12 colon)?
A: > 100000 nM

Q: What about the GI50 (MOLT-4 leukemia) of the same compound?
A: 448 nM

Q: And the TGI (MOLT-4 leukemia)?
A: > 40300 nM

Q: And the GI50 (LOX IMVI melanoma)?
A: 577 nM

Q: And the TGI (LOX IMVI melanoma)?
A: > 100000 nM

Q: And the GI50 (HCC-2998 colon)?
A: 865 nM

Q: And the TGI (HCC-2998 colon)?
A: 5980 nM

Q: And the GI50 (OVCAR-5 ovarian)?
A: 852 nM

Q: What about the TGI (OVCAR-5 ovarian) of the same compound?
A: > 100000 nM

Q: What about the GI50 (NCI-H460 lung) of the same compound?
A: 389 nM

Q: And the TGI (NCI-H460 lung)?
A: 37900 nM

Q: What about the GI50 (HOP-62 NSCLC) of the same compound?
A: 497 nM

Q: What about the TGI (HOP-62 NSCLC) of the same compound?
A: > 100000 nM

Q: And the GI50 (RPMI-8226 leukemia)?
A: 388 nM

Q: What about the TGI (RPMI-8226 leukemia) of the same compound?
A: > 100000 nM

Q: What about the GI50 (UACC-62 melanoma) of the same compound?
A: 504 nM

Q: And the TGI (UACC-62 melanoma)?
A: > 100000 nM

Q: What about the GI50 (A498 renal) of the same compound?
A: 71 nM

Q: What about the TGI (A498 renal) of the same compound?
A: 675 nM

Q: What about the GI50 (SF-539 CNS) of the same compound?
A: 305 nM

Q: And the TGI (SF-539 CNS)?
A: 1220 nM

Q: And the GI50 (SR leukemia)?
A: 176 nM

Q: What about the GI50 (OVCAR-8 ovarian) of the same compound?
A: 560 nM

Q: What about the TGI (OVCAR-8 ovarian) of the same compound?
A: > 100000 nM

Q: What about the GI50 (SK-OV-3 ovarian) of the same compound?
A: 787 nM

Q: What about the TGI (SK-OV-3 ovarian) of the same compound?
A: > 100000 nM

Q: And the GI50 (K-562 leukemia)?
A: 178 nM

Q: What about the TGI (K-562 leukemia) of the same compound?
A: > 100000 nM

Q: What about the GI50 (HL-60(TB) leukemia) of the same compound?
A: 262 nM

Q: What about the GI50 (OVCAR-4 ovarian) of the same compound?
A: 1090 nM

Q: What about the TGI (OVCAR-4 ovarian) of the same compound?
A: > 100000 nM

Q: What about the GI50 (MCF7 breast) of the same compound?
A: 343 nM

Q: What about the TGI (MCF7 breast) of the same compound?
A: > 100000 nM

Q: And the GI50 (MALME-3M melanoma)?
A: 475 nM

Q: What about the TGI (MALME-3M melanoma) of the same compound?
A: > 100000 nM

Q: What about the GI50 (PC-3 prostate) of the same compound?
A: 448 nM

Q: What about the TGI (PC-3 prostate) of the same compound?
A: > 100000 nM

Q: What about the GI50 (786-0 renal) of the same compound?
A: 613 nM

Q: What about the TGI (786-0 renal) of the same compound?
A: > 100000 nM

Q: What about the GI50 (T-47D breast) of the same compound?
A: 389 nM

Q: And the TGI (T-47D breast)?
A: > 100000 nM

Q: What about the GI50 (SW-620 colon) of the same compound?
A: 357 nM

Q: And the TGI (SW-620 colon)?
A: > 100000 nM

Q: And the GI50 (RXF 393 renal)?
A: 244 nM

Q: And the TGI (RXF 393 renal)?
A: 834 nM

Q: And the GI50 (SNB-75 CNS)?
A: 198 nM

Q: What about the TGI (SNB-75 CNS) of the same compound?
A: 5500 nM

Q: And the GI50 (NCI-H226 lung)?
A: 1870 nM

Q: And the TGI (NCI-H226 lung)?
A: > 70800 nM

Q: What about the GI50 (SK-MEL-5 melanoma) of the same compound?
A: 504 nM

Q: What about the TGI (SK-MEL-5 melanoma) of the same compound?
A: 16900 nM

Q: And the GI50 (HT29 colon)?
A: 347 nM

Q: What about the TGI (HT29 colon) of the same compound?
A: > 34100 nM

Q: What about the GI50 (NCI/ADR-RES ovarian) of the same compound?
A: 319 nM

Q: And the TGI (NCI/ADR-RES ovarian)?
A: > 28700 nM

Q: What about the GI50 (HS 578T breast) of the same compound?
A: 352 nM

Q: What about the TGI (HS 578T breast) of the same compound?
A: > 100000 nM

Q: And the GI50 (CAKI-1 renal)?
A: 437 nM

Q: And the TGI (CAKI-1 renal)?
A: > 100000 nM

Q: What about the GI50 (SNB-19 CNS) of the same compound?
A: 492 nM

Q: What about the TGI (SNB-19 CNS) of the same compound?
A: > 100000 nM

Q: What about the GI50 (CCRF-CEM leukemia) of the same compound?
A: 338 nM

Q: And the TGI (CCRF-CEM leukemia)?
A: > 100000 nM

Q: What about the GI50 (HOP-92 NSCLC) of the same compound?
A: 1500 nM

Q: What about the TGI (HOP-92 NSCLC) of the same compound?
A: > 100000 nM

Q: What about the GI50 (UO-31 renal) of the same compound?
A: 924 nM

Q: What about the TGI (UO-31 renal) of the same compound?
A: > 100000 nM

Q: And the GI50 (MDA-MB-435)?
A: 153 nM

Q: What about the TGI (MDA-MB-435) of the same compound?
A: 403 nM

Q: What about the GI50 (BT-549 breast) of the same compound?
A: 627 nM

Q: And the TGI (BT-549 breast)?
A: > 100000 nM

Q: And the GI50 (U251 CNS)?
A: 493 nM

Q: And the TGI (U251 CNS)?
A: > 100000 nM

Q: What about the GI50 (A549 NSCLC) of the same compound?
A: 514 nM

Q: What about the TGI (A549 NSCLC) of the same compound?
A: > 100000 nM

Q: What about the GI50 (HCT-15 colon) of the same compound?
A: 372 nM

Q: What about the TGI (HCT-15 colon) of the same compound?
A: > 100000 nM

Q: What about the GI50 (ACHN renal) of the same compound?
A: 654 nM

Q: What about the TGI (ACHN renal) of the same compound?
A: > 100000 nM

Q: And the GI50 (NCI-H23 lung)?
A: 645 nM

Q: And the TGI (NCI-H23 lung)?
A: > 100000 nM

Q: And the GI50 (IGROV1 ovarian)?
A: 526 nM

Q: And the TGI (IGROV1 ovarian)?
A: > 100000 nM

Q: What about the GI50 (SF-268 CNS) of the same compound?
A: 2520 nM

Q: And the TGI (SF-268 CNS)?
A: > 100000 nM

Q: And the GI50 (SF-295 CNS)?
A: 355 nM

Q: What about the TGI (SF-295 CNS) of the same compound?
A: > 28200 nM

Q: And the GI50 (SK-MEL-28 melanoma)?
A: 4520 nM

Q: What about the TGI (SK-MEL-28 melanoma) of the same compound?
A: > 100000 nM

Q: What about the GI50 (OVCAR-3 ovarian) of the same compound?
A: 336 nM

Q: And the TGI (OVCAR-3 ovarian)?
A: 3190 nM

Q: And the GI50 (EKVX NSCLC)?
A: 765 nM

Q: And the TGI (EKVX NSCLC)?
A: > 100000 nM

Q: And the GI50 (SK-MEL-2 melanoma)?
A: 471 nM

Q: And the TGI (SK-MEL-2 melanoma)?
A: > 100000 nM

Q: And the GI50 (UACC-257 melanoma)?
A: 3320 nM

Q: And the TGI (UACC-257 melanoma)?
A: > 100000 nM

Q: What about the GI50 (TK-10 renal) of the same compound?
A: 4510 nM

Q: And the TGI (TK-10 renal)?
A: > 100000 nM

Q: What about the GI50 (HCT-116 colon) of the same compound?
A: 426 nM

Q: And the TGI (HCT-116 colon)?
A: > 100000 nM

Q: What about the GI50 (COLO 205 colon) of the same compound?
A: 366 nM

Q: And the GI50 (M14 melanoma)?
A: 308 nM

Q: And the TGI (M14 melanoma)?
A: > 100000 nM

Q: What about the GI50 (MDA-MB-231 breast) of the same compound?
A: 699 nM

Q: What about the TGI (MDA-MB-231 breast) of the same compound?
A: > 100000 nM

Q: And the GI50 (NCI-H522 lung)?
A: 407 nM

Q: And the TGI (NCI-H522 lung)?
A: 5030 nM

Q: What about the GI50 (SN12C renal) of the same compound?
A: 580 nM

Q: And the TGI (SN12C renal)?
A: > 100000 nM

Q: What about the GI50 (DU-145 prostate) of the same compound?
A: 502 nM

Q: And the TGI (DU-145 prostate)?
A: > 100000 nM
